Reference: ChEMBL document CHEMBL4507274 (2021)

What was measured:
[1] = target: Ribosomal protein S6 kinase alpha-2 (Homo sapiens) (UniProt Q15349); settings: Compound concentration 100.0 nM
[2] = target: Muscle, skeletal receptor tyrosine-protein kinase (Homo sapiens) (UniProt O15146); settings: Compound concentration 100.0 nM
[3] = target: Epithelial discoidin domain-containing receptor 1 (Homo sapiens) (UniProt Q08345); settings: Compound concentration 100.0 nM
[4] = target: STE20-like serine/threonine-protein kinase (Homo sapiens) (UniProt Q9H2G2); settings: Compound concentration 100.0 nM
[5] = target: T1, Serine/threonine-protein kinase D2 (Homo sapiens) (UniProt Q9BZL6); settings: Compound concentration 100.0 nM
T1 sequence (whole entry): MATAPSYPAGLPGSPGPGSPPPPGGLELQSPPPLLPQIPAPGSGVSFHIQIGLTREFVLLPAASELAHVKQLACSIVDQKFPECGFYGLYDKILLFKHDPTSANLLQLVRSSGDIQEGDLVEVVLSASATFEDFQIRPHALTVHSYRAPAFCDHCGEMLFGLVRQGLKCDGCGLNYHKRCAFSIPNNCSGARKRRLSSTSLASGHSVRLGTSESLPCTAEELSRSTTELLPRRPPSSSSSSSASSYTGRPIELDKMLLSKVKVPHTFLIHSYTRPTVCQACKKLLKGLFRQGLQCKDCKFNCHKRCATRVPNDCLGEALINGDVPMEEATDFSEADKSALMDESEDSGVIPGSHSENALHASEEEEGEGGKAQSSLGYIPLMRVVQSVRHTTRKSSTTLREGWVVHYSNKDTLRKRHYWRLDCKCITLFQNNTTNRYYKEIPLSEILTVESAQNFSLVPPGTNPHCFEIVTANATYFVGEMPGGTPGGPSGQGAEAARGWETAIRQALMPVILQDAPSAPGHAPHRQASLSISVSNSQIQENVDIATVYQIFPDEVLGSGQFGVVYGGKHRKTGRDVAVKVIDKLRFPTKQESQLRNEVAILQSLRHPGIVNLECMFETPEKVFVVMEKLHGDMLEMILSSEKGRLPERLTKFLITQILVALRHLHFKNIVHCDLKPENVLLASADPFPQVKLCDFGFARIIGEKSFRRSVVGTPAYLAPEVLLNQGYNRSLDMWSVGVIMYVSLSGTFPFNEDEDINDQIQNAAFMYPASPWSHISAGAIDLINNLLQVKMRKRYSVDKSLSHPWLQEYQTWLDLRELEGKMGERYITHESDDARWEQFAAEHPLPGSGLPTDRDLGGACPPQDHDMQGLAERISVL

[6] = target: 5-hydroxytryptamine receptor 5A (Homo sapiens) (UniProt P47898); settings: Compound concentration 10.0 uM
[7] = target: Cyclin-dependent kinase 11A (Homo sapiens) (UniProt Q9UQ88); settings: Compound concentration 100.0 nM
[8] = target: Receptor tyrosine-protein kinase erbB-4 (Homo sapiens) (UniProt Q15303); settings: Compound concentration 100.0 nM
[9] = target: Fibroblast growth factor receptor 2 (Homo sapiens) (UniProt P21802); settings: Compound concentration 100.0 nM
[10] = target: T2, Protein kinase C epsilon type (Homo sapiens) (UniProt Q02156); settings: Compound concentration 100.0 nM
T2 sequence (whole entry): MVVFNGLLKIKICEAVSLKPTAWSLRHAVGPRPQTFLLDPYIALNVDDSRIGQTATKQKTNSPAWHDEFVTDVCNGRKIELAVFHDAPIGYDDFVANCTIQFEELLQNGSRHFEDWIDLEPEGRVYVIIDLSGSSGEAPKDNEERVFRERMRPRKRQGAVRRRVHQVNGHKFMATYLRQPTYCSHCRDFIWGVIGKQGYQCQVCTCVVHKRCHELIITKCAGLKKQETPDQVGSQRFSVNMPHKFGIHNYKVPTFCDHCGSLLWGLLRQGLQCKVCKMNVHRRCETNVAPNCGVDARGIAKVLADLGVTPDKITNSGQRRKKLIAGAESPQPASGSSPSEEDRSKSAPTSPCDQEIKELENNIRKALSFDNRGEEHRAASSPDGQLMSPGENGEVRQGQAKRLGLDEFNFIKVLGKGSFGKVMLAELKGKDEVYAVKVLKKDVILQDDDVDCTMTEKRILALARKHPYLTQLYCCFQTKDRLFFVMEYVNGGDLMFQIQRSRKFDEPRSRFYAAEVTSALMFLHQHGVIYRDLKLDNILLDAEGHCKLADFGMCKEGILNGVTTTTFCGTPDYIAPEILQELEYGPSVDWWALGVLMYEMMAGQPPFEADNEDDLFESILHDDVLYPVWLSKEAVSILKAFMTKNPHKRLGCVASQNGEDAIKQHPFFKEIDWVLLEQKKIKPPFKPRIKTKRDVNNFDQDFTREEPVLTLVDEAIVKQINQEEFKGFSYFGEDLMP

[11] = target: Calcium/calmodulin-dependent protein kinase type II subunit delta (Homo sapiens) (UniProt Q13557); settings: Compound concentration 100.0 nM
[12] = target: High affinity nerve growth factor receptor (Homo sapiens) (UniProt P04629); settings: Compound concentration 100.0 nM
[13] = target: Serine/threonine-protein kinase TAO2 (Homo sapiens) (UniProt Q9UL54); settings: Compound concentration 100.0 nM
[14] = test system: Tyrosine-protein kinase ABL1 (Homo sapiens), P00519 [F317I]; settings: Compound concentration 100.0 nM
[15] = target: Serine/threonine-protein kinase Nek9 (Homo sapiens) (UniProt Q8TD19); settings: Compound concentration 100.0 nM
[16] = target: Phosphatidylinositol 3-kinase C2 domain-containing subunit gamma (Homo sapiens) (UniProt O75747); settings: Compound concentration 100.0 nM
[17] = test system: Phosphatidylinositol 4,5-bisphosphate 3-kinase catalytic subunit alpha isoform (Homo sapiens), P42336 [H1047L]; settings: Compound concentration 100.0 nM
[18] = target: Serine/threonine-protein kinase Nek6 (Homo sapiens) (UniProt Q9HC98); settings: Compound concentration 100.0 nM
[19] = target: Interleukin-1 receptor-associated kinase 3 (Homo sapiens) (UniProt Q9Y616); settings: Compound concentration 100.0 nM
[20] = target: Tyrosine-protein kinase CSK (Homo sapiens) (UniProt P41240); settings: Compound concentration 100.0 nM
[21] = target: RAF proto-oncogene serine/threonine-protein kinase (Homo sapiens) (UniProt P04049); settings: Compound concentration 100.0 nM
[22] = target: Mitogen-activated protein kinase kinase kinase 15 (Homo sapiens) (UniProt Q6ZN16); settings: Compound concentration 100.0 nM
[23] = target: Tyrosine-protein kinase Fer (Homo sapiens) (UniProt P16591); settings: Compound concentration 100.0 nM

Chain of Phosphatidylinositol 4,5-bisphosphate 3-kinase catalytic subunit alpha isoform (Homo sapiens), P42336 [H1047L] (P42336 whole entry H1047L, canonical isoform): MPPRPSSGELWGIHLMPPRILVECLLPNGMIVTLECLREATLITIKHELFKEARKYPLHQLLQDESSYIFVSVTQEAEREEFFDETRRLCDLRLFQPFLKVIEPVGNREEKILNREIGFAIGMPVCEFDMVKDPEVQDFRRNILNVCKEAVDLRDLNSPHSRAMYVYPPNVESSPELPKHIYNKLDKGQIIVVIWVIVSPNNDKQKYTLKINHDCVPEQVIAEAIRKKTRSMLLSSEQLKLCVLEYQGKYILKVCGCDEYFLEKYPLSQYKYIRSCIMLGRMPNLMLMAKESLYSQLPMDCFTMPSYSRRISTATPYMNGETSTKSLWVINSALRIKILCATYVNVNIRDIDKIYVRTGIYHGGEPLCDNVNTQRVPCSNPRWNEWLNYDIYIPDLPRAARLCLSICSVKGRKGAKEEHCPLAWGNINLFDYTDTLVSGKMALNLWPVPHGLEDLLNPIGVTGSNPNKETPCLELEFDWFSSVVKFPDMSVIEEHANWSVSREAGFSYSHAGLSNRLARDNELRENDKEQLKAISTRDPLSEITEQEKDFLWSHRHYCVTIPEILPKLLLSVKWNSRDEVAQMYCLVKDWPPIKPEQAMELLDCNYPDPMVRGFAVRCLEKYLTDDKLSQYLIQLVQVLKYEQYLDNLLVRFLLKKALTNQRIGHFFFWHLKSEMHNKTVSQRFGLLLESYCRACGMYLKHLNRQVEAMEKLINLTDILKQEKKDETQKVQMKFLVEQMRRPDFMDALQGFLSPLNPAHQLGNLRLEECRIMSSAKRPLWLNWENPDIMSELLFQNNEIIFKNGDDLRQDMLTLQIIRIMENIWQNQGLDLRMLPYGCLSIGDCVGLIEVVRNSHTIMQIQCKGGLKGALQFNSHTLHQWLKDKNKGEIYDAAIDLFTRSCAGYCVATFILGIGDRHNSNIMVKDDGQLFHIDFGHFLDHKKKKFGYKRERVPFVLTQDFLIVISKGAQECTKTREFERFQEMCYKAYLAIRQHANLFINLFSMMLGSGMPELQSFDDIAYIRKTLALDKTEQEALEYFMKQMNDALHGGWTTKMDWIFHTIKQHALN
Chain of Cyclin-dependent kinase 11A (Homo sapiens) (Q9UQ88 whole entry): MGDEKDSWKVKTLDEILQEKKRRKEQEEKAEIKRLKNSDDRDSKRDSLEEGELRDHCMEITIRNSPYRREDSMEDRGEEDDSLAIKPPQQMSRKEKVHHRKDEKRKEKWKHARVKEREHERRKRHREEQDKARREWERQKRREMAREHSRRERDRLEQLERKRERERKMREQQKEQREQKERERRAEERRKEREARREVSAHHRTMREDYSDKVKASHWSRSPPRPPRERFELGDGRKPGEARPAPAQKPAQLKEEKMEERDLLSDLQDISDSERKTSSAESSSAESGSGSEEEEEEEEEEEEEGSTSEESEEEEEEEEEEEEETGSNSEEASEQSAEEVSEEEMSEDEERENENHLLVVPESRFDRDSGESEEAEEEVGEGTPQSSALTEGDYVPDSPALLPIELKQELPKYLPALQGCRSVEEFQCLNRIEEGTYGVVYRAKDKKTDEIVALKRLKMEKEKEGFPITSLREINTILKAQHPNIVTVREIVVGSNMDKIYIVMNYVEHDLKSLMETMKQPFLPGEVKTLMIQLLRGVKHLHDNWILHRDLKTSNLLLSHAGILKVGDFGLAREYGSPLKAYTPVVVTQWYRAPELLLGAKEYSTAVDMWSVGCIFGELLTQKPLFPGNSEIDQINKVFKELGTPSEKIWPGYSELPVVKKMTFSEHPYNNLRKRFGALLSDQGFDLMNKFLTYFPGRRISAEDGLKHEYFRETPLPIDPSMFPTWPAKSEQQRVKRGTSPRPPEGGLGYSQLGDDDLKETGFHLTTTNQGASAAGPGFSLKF
Chain of Fibroblast growth factor receptor 2 (Homo sapiens) (P21802 22-821 limits assumed): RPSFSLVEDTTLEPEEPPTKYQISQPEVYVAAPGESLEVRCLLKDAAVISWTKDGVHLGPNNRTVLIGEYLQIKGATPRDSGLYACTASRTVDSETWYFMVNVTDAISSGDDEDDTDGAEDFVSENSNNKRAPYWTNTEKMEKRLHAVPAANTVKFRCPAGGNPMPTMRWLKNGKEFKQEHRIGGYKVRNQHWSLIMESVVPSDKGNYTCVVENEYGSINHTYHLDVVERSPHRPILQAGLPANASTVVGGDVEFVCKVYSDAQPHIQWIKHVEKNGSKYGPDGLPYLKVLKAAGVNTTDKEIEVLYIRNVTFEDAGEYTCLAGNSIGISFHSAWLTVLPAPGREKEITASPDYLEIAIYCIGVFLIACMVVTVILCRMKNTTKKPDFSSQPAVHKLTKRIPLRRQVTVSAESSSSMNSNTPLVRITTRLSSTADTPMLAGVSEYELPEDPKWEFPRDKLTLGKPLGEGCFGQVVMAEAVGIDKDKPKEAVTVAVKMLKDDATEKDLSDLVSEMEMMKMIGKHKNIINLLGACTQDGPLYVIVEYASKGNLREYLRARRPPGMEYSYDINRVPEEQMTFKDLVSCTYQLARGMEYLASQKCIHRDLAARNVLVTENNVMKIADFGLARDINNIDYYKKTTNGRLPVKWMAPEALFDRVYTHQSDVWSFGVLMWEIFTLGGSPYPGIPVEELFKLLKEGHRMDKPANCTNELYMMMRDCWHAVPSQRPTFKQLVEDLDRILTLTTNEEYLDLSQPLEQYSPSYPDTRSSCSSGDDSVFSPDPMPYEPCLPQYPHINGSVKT
Chain of Serine/threonine-protein kinase Nek6 (Homo sapiens) (Q9HC98 whole entry): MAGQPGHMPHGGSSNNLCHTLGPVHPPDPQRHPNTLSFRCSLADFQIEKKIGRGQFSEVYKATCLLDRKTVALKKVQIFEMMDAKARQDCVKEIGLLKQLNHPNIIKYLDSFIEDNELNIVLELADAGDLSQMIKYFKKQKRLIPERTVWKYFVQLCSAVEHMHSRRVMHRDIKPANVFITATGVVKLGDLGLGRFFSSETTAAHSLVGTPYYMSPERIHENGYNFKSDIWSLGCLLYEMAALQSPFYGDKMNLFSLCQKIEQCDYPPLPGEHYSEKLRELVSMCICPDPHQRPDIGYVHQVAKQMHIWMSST
Chain of STE20-like serine/threonine-protein kinase (Homo sapiens) (Q9H2G2 whole entry, looked up): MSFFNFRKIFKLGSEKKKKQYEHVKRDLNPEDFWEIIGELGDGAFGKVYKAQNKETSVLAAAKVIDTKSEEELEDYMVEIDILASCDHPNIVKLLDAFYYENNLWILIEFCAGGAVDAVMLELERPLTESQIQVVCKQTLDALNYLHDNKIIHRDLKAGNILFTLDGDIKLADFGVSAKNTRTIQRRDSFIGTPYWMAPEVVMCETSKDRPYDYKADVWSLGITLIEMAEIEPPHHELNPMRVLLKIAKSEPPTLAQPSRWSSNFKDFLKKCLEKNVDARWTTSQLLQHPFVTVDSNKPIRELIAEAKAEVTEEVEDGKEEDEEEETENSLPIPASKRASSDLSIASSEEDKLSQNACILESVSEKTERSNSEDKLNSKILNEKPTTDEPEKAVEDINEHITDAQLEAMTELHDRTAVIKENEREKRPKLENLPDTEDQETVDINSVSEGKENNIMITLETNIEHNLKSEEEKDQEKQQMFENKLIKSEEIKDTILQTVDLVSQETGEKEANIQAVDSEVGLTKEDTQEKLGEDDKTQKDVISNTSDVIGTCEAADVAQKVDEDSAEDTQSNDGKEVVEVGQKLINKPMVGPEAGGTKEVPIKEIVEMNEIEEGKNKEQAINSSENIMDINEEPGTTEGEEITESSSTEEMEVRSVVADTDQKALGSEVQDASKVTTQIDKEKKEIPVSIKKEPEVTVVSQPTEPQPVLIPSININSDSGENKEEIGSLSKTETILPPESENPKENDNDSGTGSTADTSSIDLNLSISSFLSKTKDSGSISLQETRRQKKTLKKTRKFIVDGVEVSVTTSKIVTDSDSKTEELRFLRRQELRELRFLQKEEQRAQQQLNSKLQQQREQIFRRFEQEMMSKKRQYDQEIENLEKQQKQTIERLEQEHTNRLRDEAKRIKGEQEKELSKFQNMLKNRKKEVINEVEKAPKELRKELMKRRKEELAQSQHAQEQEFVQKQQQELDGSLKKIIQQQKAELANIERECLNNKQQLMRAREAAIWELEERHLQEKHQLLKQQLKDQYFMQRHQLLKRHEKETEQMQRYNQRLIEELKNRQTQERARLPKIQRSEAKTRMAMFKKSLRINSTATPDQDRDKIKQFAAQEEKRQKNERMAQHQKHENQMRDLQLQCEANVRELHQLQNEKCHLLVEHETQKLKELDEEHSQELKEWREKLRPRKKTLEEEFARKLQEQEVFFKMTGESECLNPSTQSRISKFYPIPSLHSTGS
Chain of High affinity nerve growth factor receptor (Homo sapiens) (P04629 33-796 limits assumed): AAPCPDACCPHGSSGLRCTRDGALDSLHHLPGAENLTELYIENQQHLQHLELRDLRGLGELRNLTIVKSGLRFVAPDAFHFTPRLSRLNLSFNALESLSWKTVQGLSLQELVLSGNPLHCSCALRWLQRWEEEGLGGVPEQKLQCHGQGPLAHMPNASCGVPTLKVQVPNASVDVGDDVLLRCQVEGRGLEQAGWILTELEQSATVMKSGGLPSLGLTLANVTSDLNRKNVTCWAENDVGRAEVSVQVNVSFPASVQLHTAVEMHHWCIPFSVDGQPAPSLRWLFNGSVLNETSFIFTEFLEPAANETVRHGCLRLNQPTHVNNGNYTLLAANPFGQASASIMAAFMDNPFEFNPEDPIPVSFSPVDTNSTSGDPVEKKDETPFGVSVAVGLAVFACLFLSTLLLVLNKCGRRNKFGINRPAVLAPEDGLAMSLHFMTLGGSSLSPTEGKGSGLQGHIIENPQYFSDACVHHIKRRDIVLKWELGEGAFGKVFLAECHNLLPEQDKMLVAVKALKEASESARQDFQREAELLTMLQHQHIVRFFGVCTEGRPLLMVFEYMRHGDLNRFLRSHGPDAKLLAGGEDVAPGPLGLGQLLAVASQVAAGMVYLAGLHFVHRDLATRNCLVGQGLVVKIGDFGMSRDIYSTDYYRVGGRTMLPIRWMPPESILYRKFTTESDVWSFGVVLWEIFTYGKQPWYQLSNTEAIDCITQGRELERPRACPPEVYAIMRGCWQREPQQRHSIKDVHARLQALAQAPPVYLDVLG

Cc1c[nH]c2nccc(Oc3c(F)cc(Nc4cc(Cl)nc(N)n4)cc3F)c12 [BAY-549]
inactive: residual activity [1] 82% | residual activity [2] 96% | residual activity [3] 100% | residual activity [4] 97% | residual activity [5] 94% | inhibition [6] -9.86% | residual activity [7] 100% | residual activity [8] 100% | residual activity [9] 100% | residual activity [10] 96% | residual activity [11] 90% | residual activity [12] 81% | residual activity [13] 100% | residual activity [14] 55% | residual activity [15] 96% | residual activity [16] 100% | residual activity [17] 81% | residual activity [18] 99% | residual activity [19] 85% | residual activity [20] 87% | residual activity [21] 75% | residual activity [22] 94% | residual activity [23] 100%

Cn1cc(Cl)c2c(Oc3c(F)cc(Nc4cc(Cl)nc(N)n4)cc3F)ccnc21 [BAY-4900]
inactive: residual activity [1] 95% | residual activity [2] 100% | residual activity [3] 100% | residual activity [4] 98% | residual activity [5] 91% | inhibition [6] 0.35% | residual activity [7] 100% | residual activity [8] 97% | residual activity [9] 98% | residual activity [10] 91% | residual activity [11] 95% | residual activity [12] 74% | residual activity [13] 100% | residual activity [14] 89% | residual activity [15] 100% | residual activity [16] 100% | residual activity [17] 83% | residual activity [18] 100% | residual activity [19] 97% | residual activity [20] 100% | residual activity [21] 91% | residual activity [22] 84% | residual activity [23] 100%
